In test [1] the test system is IL-4 stimulated expression of CD23 in human Ramos B cells (JAK-1 and JAK-3). Nature of the test: Assay for Ramos B-Cell Line Stimulated with IL-4 (CD23 upregulation, FACS). The conditions noted are these: Ramos B-cell line stimulated with IL-4, CD23 expression by FACS, read-out: IC50, Example 41. The class given is cell-based. The gist of the method:
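Human Ramos B cells in RPMI with 5% serum were pre-incubated with compound or DMSO for 1 h at 37 °C, then stimulated with IL-4 at a final 50 units/mL for 20-24 h. CD23 upregulation was measured by anti-CD23-PE staining and flow cytometry, and IC50 values were calculated.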

Test [2] has as its system up-regulation of ICAM-1 (CD54) by IFNγ in A549 lung epithelial cells. Briefly: A549 Epithelial Line Stimulated with IFNγ (ICAM-1 surface expression, FACS). The class given is cell-based, human. The note with it: ICAM-1 expression by FACS, read-out: IC50, Example 43. An excerpt: The activity of the compounds of the invention may additionally be characterized by assaying the effect of the 2,4-substituted pyrimidinediamine compounds described herein on A549 lung epithelial cells and U937 cells. A549 lung epithelial cells and U937 cells up-regulate ICAM-1 (CD54) surface expression in response to a variety of different stimuli. Therefore, using ICAM-1 expression as readout, test compound effects on different signaling pathways can be assessed in the same cell type. Stimulation with IL-1β through the IL-1β receptor activates the TRAF6/NFκB pathway resulting in up-regulation of ICAM-1. IFNγ induces ICAM-1 up-regulation through activation of the JAK1/JAK2 pathway. The up-regulation of ICAM-1 can be quantified by flow cytometry across a compound dose curve and EC50, values are calculated. An exemplary assays of this type are described in greater detail in Examples 43 and 44
A549 lung epithelial cells up-regulate ICAM-1 (CD54) surface expression in response to a variety of different stimuli. Therefore, using ICAM-1 expression as readout, compound effects on different signaling pathways can be assessed in the same cell type. IFNγ up-regulates ICAM-1 through activation of the JAK/Stat pathway. In this example, the up-regulation of ICAM-1 by IFNγ was assessed.
The A549 lung epithelial carcinoma cell line originated from the American Type Culture Collection. Routine culturing was with F12K media (Mediatech Inc., Lenexa, KS, Cat. No. 10-025-CV) with 10% fetal bovine serum, 100 I.U. penicillin and […] streptomycin (complete F12k media). Cells were incubated in a humidified atmosphere of 5% CO2 at 37° C. Prior to use in the assay, A549 cells were washed with PBS and trypsinized (Mediatech Inc., Cat. No. 25-052-CI) to lift the cells. The trypsin cell suspension was neutralized with complete F12K media and centrifuged to pellet the cells. The cell pellet was resuspended in complete F12K media at a concentration of 2.0×10^5/mL. Cells were seeded at 20,000 per well, 100 μL total volume, in a flat bottom tissue culture plate and allowed to adhere overnight.
On day two, A549 cells were pre-incubated with a 2,4-substituted pyrimidinediamine test compound or DMSO (control) (Sigma-Aldrich, St. Louis, MO, Catalog No. D2650) for 1 hour. The cells were then stimulated with IFNγ (75 ng/mL) (Peprotech Inc., Rocky Hill, NJ, Cat. No. 300-02) and allowed to incubate for 24 hours. The final test compound dose range was 30 μM to 14 nM in 200 μL F12K media containing 5% FBS, 0.3% DMSO.
On day three, the cell media was removed and the cells were washed with 200 μL PBS (phosphate buffered saline). Each well was trypsinized to dissociate the cells, then neutralized by addition of 200 μL complete F12K media. Cells were pelleted and stained with an APC conjugated mouse anti-human ICAM-1 (CD54) (BD Pharmingen, San Diego, CA, Catalog #559771) antibody for 20 minutes at 4° C. Cells were washed with ice cold FACS buffer (PBS+2% FBS) and surface ICAM-1 expression was analyzed by flow cytometry. Detection was performed using a BD LSR I System Flow Cytometer, purchased from BD Biosciences of San Jose, California Events were gated for live scatter and the geometric mean was calculated (Becton-Dickinson CellQuest software version 3.3, Franklin Lakes, NJ). Geometric means were plotted against the compound concentration to generate a dose response curve.
A general note: A flow cytometer gives signals particle by particle.

Setting [3] is: A549 epithelial line stimulated with IFNγ.
Setting [4] is: Homo sapiens, A549, A549 epithelial line stimulated with IFNγ.

Read-outs that look alike come from different tables or passages of the source.

The term IC50 denotes the point on the concentration scale where inhibition reaches its midpoint. Consider `CN1CCN(S(=O)(=O)c2cccc(Nc3ncc(F)c(Nc4cccc(OCC#N)c4)n3)c2)CC1` [Compound I-5, N4-(3-Cyanomethoxy)phenyl-5-fluoro-N2-[3-(4-methylpiperazin-1-yl)sulfonyl]phenyl-2,4-pyrimidinediamine], for which the IC50 in test [1] is 1.65 µM; in test [2] (setting [3]), 29.9 µM.

As for `CN1CCN(S(=O)(=O)c2ccc(Nc3ncc(F)c(Nc4cccc(OCC#N)c4)n3)cc2)CC1` [Compound I-6, N4-(3-Cyanomethoxy)phenyl-5-fluoro-N2-[4-(4-methylpiperazin-1-yl)sulfonyl]phenyl-2,4-pyrimidinediamine], the concentration for half-maximal inhibition (IC50) is 0.522 µM in test [1] and 21 µM in test [2] (setting [3]).

For the compound `Cc1cc(Nc2nc(Nc3ccc(S(=O)(=O)N4CCN(C)CC4)cc3)ncc2F)cc(C)c1OCC#N` [Compound I-40, N4-(4-Cyanomethoxy-3,5-dimethylphenyl)-5-fluoro-N2-[4-(4-methylpiperazin-1-yl)sulfonylphenyl]-2,4-pyrimidinediamine], the concentration for half-maximal inhibition (IC50) is 0.308 µM in test [1] (Homo sapiens, Ramos) and 31 µM in test [2] (setting [4]).

Turning to `N#CCOc1ccc(Nc2nc(Nc3ccc(S(N)(=O)=O)cc3)ncc2F)cc1Cl` [Compound I-41, N2-(4-Aminosulfonylphenyl)-N4-(3-chloro-4-cyanomethoxyphenyl)-5-fluoro-2,4-pyrimidinediamine], the half-inhibitory concentration (IC50) was 0.0374 µM in test [1] (Homo sapiens, Ramos) and 10.2 µM in test [2] (setting [4]).

Consider `CN1CCN(S(=O)(=O)c2ccc(Nc3ncc(F)c(Nc4ccc(CC#N)cc4)n3)cc2)CC1` [III-6, N4-(4-Cyanomethyl)phenyl-5-fluoro-N2-[4-(4-methylpiperazin-1-yl)sulfonyl]phenyl-2,4-pyrimidinediamine], for which the IC50 in test [1] turned out to be 0.781 µM; in test [2] (setting [3]) it was 30.7 µM.
